For series [1], the target named is T1, rat pituitary cells (Rattus norvegicus, UniProt O08725). The following applies: GH release, 15 min incubation. A digest of the protocol:
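Primary rat anterior pituitary cells, cultured three days in DME low glucose/10% FBS, were washed, pre-incubated twice for 15 min, then challenged 15 min with test compounds (DMSO ≤0.1%) at 37 °C. Released GH was measured by two-site ELISA; EC50 came from 4-parameter fits, mean of three to four independent determinations.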

For another series, the system named is growth hormone secretion. The series is described as follows: GHRP induced growth hormone secretion, intravenous administration (Rat IV). Type of series: in vivo. Particulars: serum GH 10 min after injection; for RAT IV ED50: Table IV, iv injection; for Rat IV ED50: Table II, iv tail vein injection, anesthetized weanling female rats. A digest of the protocol:
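Female Sprague Dawley rats (24-30 days, 50-90 g) under intraperitoneal pentobarbitone received graded intravenous tail-vein peptide doses in pH 5.0 sodium acetate/mannitol buffer 20 min post-anaesthesia. Blood by cardiac puncture 10 min after dosing; serum GH measured by rat GH ELISA in duplicate.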

Series [2] in a line: Combination GHRP and IGF-1 treatment of normal rats (7 days). The following applies: for body weight gain (in words): 7 days, twice daily sc injections, normal adult female rats, GHRH 300, GHRPs 50, L-692,585 150 μg/dose. Type of series: in vivo, rat. The protocol: The rats were weighed on the day of surgery and randomized into 12 groups of 5/group using a grouping program.
The GH secretagogues were given by sc. injection twice daily, each dose of 100 μl. […] Recombinant human IGF-1 (rhIGF-1) at 2.5 mg/ml in acetate buffer was loaded into osmotic minipumps (Alza, Palo Alto, model 2ML1, pump rate 10.16 μl/hr for 7 days, fill volume 2086 μl). Other pumps were filled with acetate buffer. […] The delivered dose of rhIGF-1 was therefore 610 μg/day.
The next day the osmotic pumps were inserted into rats. […] All rats not receiving rhIGF-1 containing pumps were implanted with pumps delivering the acetate buffer excipient. […] The treatment groups were;
The rats were sacrificed using carbon dioxide, bled from the heart and organs taken. Serum chemistries were measured by standard automated procedures.

Series [3] is described as follows: Combination GHRP and IGF-1 treatment of obese Zucker Diabetic Fatty (ZDF) rats. Type of series: in vivo, rat. The following applies: for body weight gain: obese ZDF male rats, rhGH 500 μg/d. The protocol:
Ten lean ZDF rats served as an additional control group.
This GHRP was given by sc. injection twice daily, each dose of 100 μl therefore containing 50 μg/injection or 100 μg/day.
Recombinant human IGF-1 (rhIGF-1) at 13.8 mg/ml in acetate buffer was loaded into osmotic minipumps (Alza, Palo Alto, model 2ML4, pump rate 2.29 μl/hr for 28 days, fill volume 2064 μl). Other pumps were filled with acetate buffer. […] The delivered dose of rhIGF-1 was therefore 758 μg/day. Recombinant human growth hormone (rhGH, Lot R9092AX, Genentech Inc.) was diluted in sterile water to 2.5 g/l and a 100 μl injection given twice daily (250 μg/injection, or 500 μg/day).
The next day the osmotic pumps were inserted into rats. […] All rats not receiving rhIGF-1 containing pumps were implanted with pumps delivering the acetate buffer excipient.
On day 24 blood was withdrawn after a 4 hour fast and 1.5 U/kg of regular insulin was injected i.p. and a second blood sample taken 30 minutes later. The rats were then sacrificed using carbon dioxide, bled from the heart, and organs taken. Serum glucose was measured by standard automated procedures.
Data are presented as mean±standard error (SE) of the mean with 8 rats per group.

The subject of the next series is rat pituitary cell. The following applies: cited from earlier work.
The subject of a further series is ACTH. In words: ACTH release from pituitary cells (RIA). Type of series: cell-based, rat. The protocol:
Dispersion: Adult female Sprague-Dawley (160-180 g., Charles River) rats were group-caged in a 12:12 light:dark cycle with food and water available ad libitum. Pituitaries from ten rats were removed, the posterior pituitary discarded and the anterior pituitary placed in Hanks' Balanced Salt Solution (HBSS: without calcium chloride, w/o magnesium chloride, w/o magnesium sulfate; Gibco) containing 20 mM HEPES (Gibco) and 100 U/ml penicillin streptomycin (PS: JRH Biosciences). Under sterile conditions, pituitaries were rinsed twice then minced into small fragments with a razor blade. Fragments were resuspended in 5 ml of HBSS/HEPES containing 20 mg collagenase (Serva 17449) and […] of 1 mg/ml DNase (Sigma) for a 40 min. incubation in a 37° C. gyrotory water bath shaker (New Brunswick Scientific Model G76; setting 10). After the incubation, fragments were triturated to yield small clumps and single cells. The cells were centrifuged 1000× g for 5 min, resuspended, counted and plated at a final cell concentration of 100,000 cells/ml. Incubation media was DME low glucose media w/NaHCO3 (Gibco) containing 20 mM hepes, 100 U/ml PS and 10% FBS (Hyclone A-111-L). Cells were plated at 0.5 ml per well in 48 well plates (Falcon) and incubated at 37° C. in 5% C02 for three days. For challenges to determine release of other pituitary hormones cells were plated at 200,000 cells per ml with 2 ml per well of a Swell plate (Corning). Challenge: A (inip)bbFK-NH2 stock (or other GHRP) concentration of 1 mM was made in DMSO and diluted with warmed media approximately 30 min prior to use. The highest concentration of DMSO in media was 0.1%. […] STATISTICS: The mean for each group was determined and analyzed by one-way analysis of variance with a post-hoc Student-Newman-Keuls. […] The EC50 was calculated using a 4-parameter curve-fit program (Kaleidagraph). […] RIA of pituitary hormones: LH, FSH, TSH, and Prolactin were determined with commercially available kits from Amersham, and ACTH levels were determined by a RIA kit from ICN. […]

For series [4], the target named is T1, rat pituitary cells. The series is described as follows: Rat “pit” cell challenges: combinations with GHRP-6/GHRH, desensitization, somatostatin suppression, GHRP antagonist. Type of series: cell-based. The following applies: 100 nM.
Series [5] can be described thus: GHRP induced dose dependent weight gain in rats (sc minipump infusion, 14 days). Type of series: in vivo, rat. The protocol: Rat GHRH (1-43) was dissolved in the same buffer at 25 g/l.
The next day these osmotic pumps were inserted into rats.
Serum chemistries were measured by standard automated procedures.

The mark [6] stands for this setting: read-out: PIT Cell EC50, Table IV, formula III compounds.
The mark [7] stands for this setting: Day 2, GHRP 100 μg/d sc injection, rhIGF-1 758 μg/d pump.
The mark [8] stands for this setting: read-out: “Pit” Cell EC50, Table II, prior art compounds.
The mark [9] stands for this setting: high dose (inip) b b F K-NH2 100 μg/day, GHRH 600 μg/day, 14 d infusion.

Where two headings read alike, the source gives them in different places. Non-standard residues stand in square brackets, D forms with d. Residues, ends and D or L forms follow the SMILES beside them. No end group written: not given here. d2Nal = N[C@H](Cc1ccc2ccccc2c1)C(=O)O; Inp = O=C(O)C1CCNCC1

T1 sequence (O08725 whole entry): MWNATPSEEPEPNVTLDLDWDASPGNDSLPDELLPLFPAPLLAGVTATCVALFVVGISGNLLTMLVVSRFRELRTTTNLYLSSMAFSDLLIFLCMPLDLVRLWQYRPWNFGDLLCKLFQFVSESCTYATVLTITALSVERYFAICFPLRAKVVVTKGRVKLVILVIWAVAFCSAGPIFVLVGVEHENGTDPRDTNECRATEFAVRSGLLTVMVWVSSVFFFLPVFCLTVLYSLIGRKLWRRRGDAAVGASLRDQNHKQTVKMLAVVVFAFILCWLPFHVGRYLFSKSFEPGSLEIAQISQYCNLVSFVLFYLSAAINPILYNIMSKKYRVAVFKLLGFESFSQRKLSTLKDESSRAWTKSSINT

In the case of `NC(=O)[C@H](Cc1ccccc1)NC(=O)[C@@H](Cc1ccc2ccccc2c1)NC(=O)[C@@H](Cc1ccc2ccccc2c1)NC(=O)C1CCNCC1` [(inip) b b F amide, (inip)-DβNal-DβNal-Phe-amide] (H-[Inp][d2Nal][d2Nal]F-NH2), on rat pituitary cells [1] (setting [6]), the EC50 – broadly, the concentration giving half of the maximal effect – was 0.28 nM. Further, the “RAT IV ED50” value in the series on growth hormone secretion was 1.7 µg. For the same compound, in series [2], the “body weight gain (in words)” value is given as “significant body weight gain”. Further, in series [2] (in 7 days, 50 μg/dose twice daily sc), the weight gain worked out at 36 ± 8 g.
Take “rhIGF-1: Recombinant human insulin-like growth factor-1”: the body weight gain came out at 21.5 ± 0.7 g in series [3] (setting [7]) and 232 ± 2 g in series [3] (day 24, GHRP 100 μg/d, rhIGF-1 758 μg/d). Also, the blood glucose in series [3] (rat, in vivo) turned out to be 1774 mg %. Further, the serum insulin in series [3] (rat, in vivo) came to 8 ± 1 ng/mL.
`CC(C)(N)CC(=O)N[C@@H]1CCc2ccccc2N(Cc2ccc(-c3ccccc3-c3nnn[nH]3)cc2)C1=O` [L-692,429, reference compound]: the EC50 at rat pituitary cells [1] (setting [8]) came out at 26.2 nM. Further, the “Rat IV ED50” value in the series on growth hormone secretion turned out to be 100 µg. Further, the “fold less potent than GHRP-6” value in the series on rat pituitary cell is reported as “about 6 fold”.
As for “CRF: corticotrophin releasing factor (SEEPPISLDLTFHLLREVLEMARAEQLAQQAHSNRKLMEII; ends and bridges not checked; UniProt P06850 154-194, looked up) [reference compound]”, the “rise in ACTH levels” value in the series on ACTH is 3 fold.
Consider “GHRH: Rat GHRH (1-43), growth hormone releasing hormone, positive control (HADAIFTSSYRRILGQLYARKLLHEIMNRQQGERNQEQRSRFN; Somatoliberin; UniProt P09916 31-73, looked up) [reference compound]”, for which, in series [2], the “body weight gain (in words)” value is on record as “significant body weight gain”. Further, the “GH response compared with control” value in the series with rat pituitary cells [4] is “mild GH response”. For the same compound, in series [5] (14 d infusion), the epiphyseal plate width result is given as “no statistically significant increase”; the “pituitary and kidney weight” value is given as “not affected”. The “liver weight (in words)” value in series [5] (GHRH 600 μg/day, 14 d infusion) was “significantly increased”. In addition, the “heart weight compared to excipient” value in series [5] (high dose 100 μg/day, GHRH 600 μg/day) was “increased”. Moreover, in series [5] (setting [9]), the spleen weight worked out at 624 ± 23 mg and the thymus weight was 575 ± 39 mg. For the same compound, the “body weight gain compared to excipient” value in series [5] (sc minipump 14 days, (inip) b b F K-NH2 4, 20, 100 μg/d, GHRH 600 μg/d, 90 day old female rats) is “significant body weight and organ weight gain”.
`CN(C(=O)[C@@H](Cc1ccc2ccccc2c1)NC(=O)C1CCNCC1)[C@H](Cc1ccc2ccccc2c1)C(=O)NCCCCN` [(inip) b nmb bam, (inip)-DβNal-(N-Me-DβNal)-[N-(4-aminobutyl)] amide]: on rat pituitary cells [1] (setting [6]), the EC50 came out at 0.3 nM. Further, the “RAT IV ED50” value in the series on growth hormone secretion stood at 1.67 µg. In series [2], the “body weight gain (in words)” value is “significant body weight gain”.
Consider `NCCCC[C@H](NC(=O)[C@H](Cc1ccccc1)NC(=O)[C@@H](Cc1ccc2ccccc2c1)NC(=O)[C@@H](Cc1ccc2ccccc2c1)NC(=O)C1CCNCC1)C(N)=O` (stereo in doubt) [(inip) b b F K amide, (inip)-DβNal-DβNal-Phe-Lys-amide], for which the blood glucose in series [3] (rat, in vivo) is 542±37 mg %.
Regarding “rhGH: Recombinant human growth hormone (Lot R9092AX, Genentech Inc.)”, the body weight gain in series [3] (setting [7]) was determined as 13.6 ± 2.5 g. In series [3] (rat, in vivo), the blood glucose was 725±30 mg %, the fasting blood glucose is listed as 504±38 mg % and the serum insulin was 48 ± 6 ng/mL.
In the case of `C[C@@H](O)CNC(C)(C)CC(=O)N[C@@H]1CCc2ccccc2N(Cc2ccc(-c3ccccc3-c3nnn[nH]3)cc2)C1=O` [L-692,585, reference compound], the EC50 on rat pituitary cells [1] (setting [8]) was 10.6 nM. Besides, in the series on growth hormone secretion, the “Rat IV ED50” value amounted to 10 µg. The “body weight gain (in words)” value in series [2] is “no significant weight gain”. Also, in the series on rat pituitary cell, the “potency in the rat pituitary cell assay” value is on record as “slightly greater than GHRP-6”.
